US12311049B2, “Formulation of ear drops and methods for delivery thereof for treating upper respiratory infections” (priority 2023, dated 2025)

Tests used:
Type in all cases: cell-based
SARS-CoV-2 XBB1.5 = system: SARS-CoV-2 XBB1.5
[1] = system: original WA1 viral strain of SARS-CoV-2; test: in vitro infectivity of SARS-CoV-2 to epithelial cells expressing ACE-2 and TMPRSS-2 (virus-NP protein in culture media); conditions: MOI 0.01
SARS-CoV-2 BA.2 = system: SARS-CoV-2 BA.2
SARS-CoV-2 XBB = system: SARS-CoV-2 XBB
SARS-CoV-2 BA.1 = system: SARS-CoV-2 BA.1
SARS-CoV-2 BA.5 = system: SARS-CoV-2 BA.5

In the case of hemin, the “suppression of replication of SARS-CoV-2 XBB1.5” value (SARS-CoV-2 XBB1.5) is reported as “significantly suppressed replication”, the “suppression of SARS-CoV-2 infection, original WA1 viral strain” value [1] is reported as “markedly suppressed” and the “suppression of replication of SARS-CoV-2 BA.2” value (SARS-CoV-2 BA.2) is reported as “significantly suppressed replication”. For the same substance, the “suppression of replication of SARS-CoV-2 XBB” value (SARS-CoV-2 XBB) was “significantly suppressed replication”, the “dose response of inhibition of SARS-CoV-2 BA.1 (virus-NP protein levels)” value (SARS-CoV-2 BA.1) was “dose-dependent inhibition” and the “protection of cells against SARS-CoV-2 BA.1 infection” value (SARS-CoV-2 BA.1) was “protected cells”. The “suppression of replication of SARS-CoV-2 BA.5” value (SARS-CoV-2 BA.5) was “significantly suppressed replication”.
